Results published in US7572436B1, “Thionin as an antineoplastic and immunostimulant” (priority 2000, dated 2009).
Values joined by “and” are separate entries in the source; they are usually repeats but may differ in a detail not shown here. Equal entries are not always repeated. Where no end group is shown, it is not given here.

Legend:
Assay type in all cases: cell-based
Balb C splenocytes [1] = test: Mitogen assay (^3H-thymidine uptake), murine splenocytes; settings: for CPM of tritiated thymidine incorporated: Balb C splenocytes
Description: Murine spleen cells or human peripheral blood lymphocytes (PBLS) were obtained aseptically as described herein for use in the mitogen assay. When murine splenocytes were used, they were first treated with red cell lysing buffer (0.17 M Tris, 0.144 NH4C1, pH 7.2), washed in RPMI-10 (standard RPMI growth medium, Sigma Chemical Co., St. Louis, Mo., supplemented with 10% fetal bovine serum) and viable cells counted using Trypan Blue exclusion. Human PBLs were isolated from blood using HISTOPAQUE™-1077, a solution of FICOLL™ and sodium diatrizoate (Sigma Chemical Co., St. Louis, Mo.), and subsequent washings with RPMI-5 (RPMI supplemented with 5% fetal bovine serum) to remove platelets. Isolated lymphocytes were resuspended in RPMI-10 and a viable cell yield determined by Trypan Blue exclusion.
Drugs and known mitogenic controls were added in triplicate to a 96-well flat bottom microplate aseptically. The culture medium was RPMI-10. Splenocytes or human-lymphocytes were added at a concentration of 3-4×10^5 cells/well, to a final volume of 200 μl/well. The assay plate was incubated at 37° C. in a 5% CO2 humidified incubator. At 48-50 hours, ^3H-thymidine was added (1 μCi/well), and the plate was harvested approximately 16-18 hours later.
Mitogen assay microplates were harvested using an Inotech plate harvester (Inotech Biosystems International, Inc., Rockville, Md.). Counts per minute (cpm) per well were measured using the Berthold-Inotech Trace 96-plate reader (Inotech AT, Wohlen, Switzerland) and/or a scintillation counter (Packard Tri-carb 2100TR, Packard Instrument Co., Meriden, Conn.). Mitogenic activity was directly determined by comparing cpm levels to controls.
To test whether PT stimulates mitogen activity, splenocytes were incubated for two days with IL-2 (50 units/ml) or KLH (20 μg/ml) in conjunction with PT in the concentrations shown. Figures represent the radioactivity counts of tritiated thymidine taken up during a subsequent 20-hour incubation period of cells incubated with tritiated thymidine in RPMI.

YAC-1 target cells = test: Natural killer assay (^51Cr release), murine splenocytes against YAC-1; settings: for % Cell Lysis: Balb/C splenocytes, ^51Cr loaded YAC-1 cells
Method: (§1) Murine spleen cell and human peripheral blood lymphocytes (PBLs) were obtained as described in the procedure for the Mitogen Assay.
(§2) Drugs and control substances were added, using sterile techniques, to the wells of a 24-well plate, using RPMI-10 as the culture medium. Spleen cells or human lymphocytes were added last to the wells at a concentration of 4×10^6 cells per 2 ml total volume in the well. Splenocyte incubation was usually three days (65-70 hours) while human lymphocyte stimulation may be extended to four to five days. The cells were incubated at 37° C. in a humidified 5% CO2 incubator.
On the day of harvest, 10^7 target cells were labeled with 150 μCi of ^51Cr (sodium chromate). Target cells used were YAC-I (murine Lymphoma) or K562 (human chronic myelogenous leukemia).
The cells were adjusted to 2×10^7 cells/ml in RPMI-10 and 150 μCi of ^51Cr were added to 500 μl of the target cell suspension (10^7 total cells) and incubated in a 5% CO2 humidified incubator for 1.5 hours. The labeled cells were washed three times with 10 ml RPMI-10 and then resuspended in 5 ml (2×10^6 cells/ml). Supernatants from washings of labeled cells were isolated and contained under lead shielding.
The stimulated effector cells were thoroughly mixed and removed from individual wells of the 24-well plate and transferred to tubes for centrifugation at 200×g. The supernatants were decanted and the pelleted cells washed once with 2 ml RPMI-10. The cells were finally resuspended in a total volume of 500 μl at approximately 8×10^6 cells/ml in RPMI-10.
One hundred microliters of the effector cell suspension (8×10^5 cells) were added in triplicate to a 96-well, V-bottom microplate. RPMI-10 was added to the wells designated for spontaneous release and total release of the target cells. One hundred microliters of the target cell suspension (1×10^4 cells/well) were added to the wells for a total volume of 200 μl. The “total release” wells contained 15 μl of 9% Triton X-100, 85 μl of RPMI-10, and 100 μl of target cells.
The 96-well plate was centrifuged at 150×g for four minutes to gently bring the effector and target cells in contact. The plate was then incubated in a humidified 5% CO2 incubator. After four hours, the assay plate was again centrifuged for five minutes at 250×g. One hundred microliters of the supernatant was carefully removed from each well and placed in 12 mm×75 mm glass tubes for counting in a gamma counter. The percent release was calculated using the following formula: […]
Addition of PT stimulates both murine splenocytes and human PBLs to kill tumor cells through lysis. This effect is enhanced in the presence of IL-2. Experimentally, the YAC-1 tumor cell line is routinely used as a target cell for murine NK cells, and the K562 cell line is used as the target for human PBLs. The human prostate cell line DU145 was also included in the test. The data set out in Table 5 show an activation of both murine and human NK cells by PT and IL-2. For these experiments, the drugs, PT and IL-2, were included in the cell suspension and incubated for 48 hours. After this period, the splenocyte suspension was mixed with the YAC-1 target cells that had been loaded with ^51Cr for four hours. The human PBLs were added to a K562 or DU-145 cell suspension that had been similarly loaded. After a 30-minute incubation, the radioactivity in the supernatant fluid was counted as a measure of lysis of the target cells, which reflects NK activity. […]

K562 Target Cells = test: Natural killer assay (^51Cr release), human PBLs against K562; settings: PT 0.01 μg/ml
Method: as §1, §2
On the day of harvest, 10^7 target cells were labeled with 150 μCi of ^51Cr (sodium chromate). Target cells used were YAC-I (murine Lymphoma) or K562 (human chronic myelogenous leukemia). […]
The 96-well plate was centrifuged at 150×g for four minutes to gently bring the effector and target cells in contact. […] The percent release was calculated using the following formula: […]
Addition of PT stimulates both murine splenocytes and human PBLs to kill tumor cells through lysis. […] After a 30-minute incubation, the radioactivity in the supernatant fluid was counted as a measure of lysis of the target cells, which reflects NK activity. […]

Balb C splenocytes [2] = test: Mitogen assay (^3H-thymidine uptake), murine splenocytes; settings: for Cpm, standard mitogen assay: 0.1 μg/ml PT

Question: Which results are given for “Pyrularia thionin (KSCCRNTWARNCYNVCRLPGTISREICAKKCDCKIISGTTCPSDYPK; ends and bridges not checked; also: labeled with 125I) [PT]”?
Answer: CPM of tritiated thymidine incorporated (Balb C splenocytes [1]; 0.003 μg/ml, RPMI + IL-2 50 units/ml): 2,656 ± 110 CPM; CPM of tritiated thymidine incorporated (Balb C splenocytes [1]; 0.003 μg/ml, RPMI + KLH 20 μg/ml): 3,957 ± 134 CPM; CPM of tritiated thymidine incorporated (Balb C splenocytes [1]; 0.003 μg/ml, RPMI): 230 ± 6 CPM; Cpm, standard mitogen assay (Balb C splenocytes [1]; 0.01 μg/ml PT, GM-CSF (5 ng/ml)): 1,767 Cpm; Cpm, standard mitogen assay (Balb C splenocytes [1]; 0.01 μg/ml PT, GM-CSF (20 ng/ml)): 1,254 Cpm; Cpm, standard mitogen assay (Balb C splenocytes [1]; 0.01 μg/ml PT, no GM-CSF, BALB C spleen cells): 287 Cpm; CPM of tritiated thymidine incorporated (Balb C splenocytes [1]; 0.01 μg/ml, KLH 20 μg/ml): 3,737 ± 134 CPM; CPM of tritiated thymidine incorporated (Balb C splenocytes [1]; 0.03 μg/ml, RPMI + IL-2 50 units/ml): 3,017 ± 107 CPM; CPM of tritiated thymidine incorporated (Balb C splenocytes [1]; 0.03 μg/ml, RPMI + KLH 20 μg/ml): 4,162 ± 200 CPM; CPM of tritiated thymidine incorporated (Balb C splenocytes [1]; 0.03 μg/ml, RPMI): 269 ± 57 CPM; Cpm, standard mitogen assay (Balb C splenocytes [1]; 0.1 μg/ml PT, GM-CSF (20 ng/ml)): 1,549 Cpm; CPM of tritiated thymidine incorporated (Balb C splenocytes [1]; 0.1 μg/ml, RPMI + IL-2 50 units/ml): 2,910 ± 351 CPM; CPM of tritiated thymidine incorporated (Balb C splenocytes [1]; 0.1 μg/ml, RPMI + KLH 20 μg/ml): 4,254 ± 140 CPM and 4,284 ± 140 CPM; CPM of tritiated thymidine incorporated (Balb C splenocytes [1]; 0.1 μg/ml, RPMI): 268 ± 74 CPM; CPM of tritiated thymidine incorporated (Balb C splenocytes [1]; 0.3 μg/ml, RPMI + IL-2 50 units/ml): 2,395 ± 103 CPM; CPM of tritiated thymidine incorporated (Balb C splenocytes [1]; 0.3 μg/ml, RPMI + KLH 20 μg/ml): 3,985 ± 101 CPM and 3,980 ± 101 CPM; CPM of tritiated thymidine incorporated (Balb C splenocytes [1]; 0.3 μg/ml, RPMI): 142 ± 10 CPM and 147 ± 10 CPM; CPM of tritiated thymidine incorporated (Balb C splenocytes [1]; 1.0 μg/ml, RPMI + IL-2 50 units/ml): 951 ± 122 CPM; CPM of tritiated thymidine incorporated (Balb C splenocytes [1]; 1.0 μg/ml, RPMI + KLH 20 μg/ml): 1,742 ± 154 CPM and 1,747 ± 154 CPM; CPM of tritiated thymidine incorporated (Balb C splenocytes [1]; 1.0 μg/ml, RPMI): 107 ± 25 CPM; % Cell Lysis (YAC-1 target cells; 0.01 μg/ml): −0.9 ± 0.5%; % Cell Lysis (YAC-1 target cells; 0.03 μg/ml): 2.1 ± 0.2%; % Cell Lysis (YAC-1 target cells; 0.1 μg/ml): 1.8 ± 0.4%; % Cytotoxicity (YAC-1 target cells; Swiss Webster murine splenocytes, YAC-1 targets, 48 hours with drugs, PT 0.01 μg/ml, IL-2 50 units/ml when present, effector to target ratio 80): 3.4 ± 0.9%; % Cytotoxicity (K562 Target Cells): 8.4 ± 0.1%; stimulation of the mitogen reaction (Balb C splenocytes [2]; 0.1 μg/ml (PT 20 nM; βME 40 nM)): modest; Cpm, standard mitogen assay (Balb C splenocytes [2]; GM-CSF (5 ng/ml)): 822 Cpm; Cpm, standard mitogen assay (Balb C splenocytes [2]; no GM-CSF): 243 Cpm
